Source: PMC6017200, “Inhibition of Cytochrome P450 Activities by Extracts of Hyptis verticillata Jacq.: Assessment for Potential HERB-Drug Interactions” (Molecules : A Journal of Synthetic Chemistry and Natural …, 2018)
In brackets after ≈: the same amount, converted by molar mass. Entries after “also recorded” stand apart in the source; their conditions may differ. Where two headings read alike, the source gives them in different places.

How the values were obtained:
human CYP1A2 = molecular target: T1, human CYP1A2 (Homo sapiens, UniProt P05177); experiment: biochemical
T1 sequence (P05177 1-516): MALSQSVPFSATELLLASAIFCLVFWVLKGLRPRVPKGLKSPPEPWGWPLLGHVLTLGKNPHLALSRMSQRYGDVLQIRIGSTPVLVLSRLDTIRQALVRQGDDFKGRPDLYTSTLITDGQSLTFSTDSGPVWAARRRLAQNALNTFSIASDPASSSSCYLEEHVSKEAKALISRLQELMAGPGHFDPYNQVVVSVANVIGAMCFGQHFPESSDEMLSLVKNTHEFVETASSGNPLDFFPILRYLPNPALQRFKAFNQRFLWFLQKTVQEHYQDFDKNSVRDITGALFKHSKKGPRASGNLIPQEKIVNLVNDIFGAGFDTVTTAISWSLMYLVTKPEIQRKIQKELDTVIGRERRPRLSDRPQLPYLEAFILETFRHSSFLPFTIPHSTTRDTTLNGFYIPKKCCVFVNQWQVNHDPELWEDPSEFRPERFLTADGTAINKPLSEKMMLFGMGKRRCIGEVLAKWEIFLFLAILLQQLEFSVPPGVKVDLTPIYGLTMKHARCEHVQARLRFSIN
Protocol: Escherichia coli membranes expressing human CYP1A1, CYP1A2, CYP1B1, CYP3A4, and CYP2D6, co-expressed with CYP reductase, were purchased from Cypex Ltd. (Dundee, UK).
The following methodology was developed by Crespi et al. and adapted by Shields et al. and Murray et al. to screen natural products for cytochrome P450 inhibition potential with a particular emphasis on the P450 enzymes, CYPs 1A1, 1A2, 1B1, 3A4 and 2D6. Plant extracts and various phytochemicals were evaluated for their ability to inhibit the catalytic activity of human cytochrome P450 enzymes by means of high throughput fluorometric inhibition assays conducted in 96 well microtitre plates as described by Crespi et al., BD Gentest and Murray et al..
7-Ethoxy-3-cyanocoumarin (CEC) was used as a substrate for detecting the activities of CYPs 1A1, and 1A2, 7-ethoxyresorufin (ERes) for CYP1B1, 7-benzyloxy-4-trifluoromethylcoumarin (BFC) for CYP3A4, and 3-[2-(N,N-diethyl-N-methylammonium)-ethyl]-7-methoxy-4-methylcoumarin (AMMC) for CYP2D6. The reactions were monitored fluorometrically at 37 °C, using an Eclipse Fluorescence Spectrophotometer (Varian Cary, Palo Alto, CA, USA).
The data listed represent average values from a minimum of two experiments run in triplicate: % Enzyme activity = [Min + (Max − Min)/(1+10^((LogIC50^− x) × p))] where Min and Max are the minimal and maximal observed effects, respectively; x is the concentration of test agent; EC50 is the concentration yielding half-maximal response (i.e., IC50); and p is the slope parameter.

[1] = DPPH radical scavenging antioxidant assay; conditions: 0.097 to 50 µg/mL in methanol, thirty-minute incubation, 517 nm
Protocol: The 1,1-diphenyl-2-picrylhydrazyl (DPPH) assay was used to measure the antioxidant capacity of four different extracts of the aerial parts of H. verticillata (Figure 2). The reduction of DPPH to hydrazine produces a colour change from purple to yellow, which is measured spectrophotometrically and compared with the known antioxidant, ascorbic acid, as described in the Materials and Methods section.
Figure 2 (A) DPPH antioxidant assay for H. verticillata extracts. […] Positive control activity was determined in the presence of varying concentrations of known antioxidant, ascorbic acid, ranging from 0.097 to 50 µg/mL. Data are expressed as Mean Percentage Antioxidant Activity (% Inhibition of DPPH) for duplicate assays for at least two independent experiments. (B) Summary of results. […]
The DPPH radical scavenging capacity of extracts of H. verticillata were evaluated by the method described by Williams et al.. The electron-donating ability of each extract, at varying concentrations, was measured colourimetrically through the bleaching of purple-coloured MeOH solution of DPPH. […]
Each test extract, as well as the ascorbic acid control, was made up in methanol to a starting concentration of 50 µg/mL and serially diluted in ninety-six well microtitre plates. […] After a thirty-minute incubation period at room temperature, the absorbance was read against a blank, comprising methanol, at 517 nm. […]

CYP2D6 = conditions: read-out: IC50 Value, reported CYP2D6 inhibition, cited from earlier work
CYP1A2 = conditions: human liver microsomes, read-out: IC50 Value, reported CYP1A2 inhibition, cited from earlier work
CYP3A4 = conditions: cited from earlier work; for IC50: read-out: IC50 Value, reported CYP3A4 inhibition
CYP2C8/C9/C19 = conditions: human liver microsomes; read-out: IC50 Value, reported CYP2C8/C9/C19 inhibition; cited from earlier work
CYP2C9 = tested on: CYP2C9; design: method as in PMID 21276781; conditions: read-out: IC50 Value, reported CYP2C9 inhibition; cited from earlier work
[2] = design: method as in PMID 24413832; conditions: aerial dried samples in ethanol; cited from earlier work
[3] = recombinant human CYP1A2, individual phytochemicals

With COc1cc([C@@H]2c3cc4c(cc3[C@H](O)[C@H]3COC(=O)[C@H]23)OCO4)cc(OC)c1O [4′-Demethylpodophyllotoxin] the “IC50, CYP1A2 activity” value (human CYP1A2; [3]) was “No inhibition”, the “IC50, CYP1A2 activity” value (human CYP1A2; recombinant human CYP1A2, individual phytochemicals, listed as 4-demethylpodophyllotoxin) was “no inhibition” and the “IC50, CYP1A2 activity” value (human CYP1A2; recombinant human CYP1A2, individual phytochemicals, listed as 4′-demethylpodophyllotoxin) was “no impact”.

COc1cc(C[C@H]2C(=O)OC[C@@H]2Cc2ccc3c(c2)OCO3)cc(OC)c1OC [(-)-Yatein] showed an IC50 (human CYP1A2) of 71.9 ± 1.8 µM.

For O=C1O[C@H]([C@@H](O)CO)C(O)=C1O [Ascorbic acid], the “IC50, DPPH antioxidant assay” value [1] was 1.32 ± 0.0 µg/mL (≈ 7.49 µM) and the “IC50, DPPH antioxidant assay” value ([1]; listed as ascorbic acid) was 1.3 µg/mL (≈ 7.38 µM).

With C=C1CCC(C(C)C)C2C=C(C)C(=O)CC12 (stereo not drawn) [Cadina-4,10(15)-dien-3-one] the IC50 (human CYP1A2; read-out: IC50, CYP1A2 activity, recombinant human CYP1A2, individual phytochemicals) was > 500 µM.

In the case of CC1(C)CC[C@]2(C(=O)O)CC[C@]3(C)C(=CC[C@@H]4[C@@]5(C)CC[C@H](O)C(C)(C)[C@@H]5CC[C@]43C)[C@@H]2C1 [Oleanolic acid], the IC50 (CYP2D6; human liver microsomes) is given as > 500 µM, the IC50 (human CYP1A2) is given as > 100 µM and the IC50 (CYP1A2; listed as oleanolic) is given as > 100 µM. For the same molecule, the IC50 (CYP1A2) was 144 µM, the IC50 (CYP3A4; human liver microsomes) was […] and the IC50 (CYP2C8/C9/C19) was > 500 µM.

In the case of COc1cc([C@@H]2c3cc4c(cc3[C@H](O)[C@H]3COC(=O)[C@H]23)OCO4)cc(OC)c1OC [Podophyllotoxin], the “IC50, CYP1A2 activity” value (human CYP1A2; [3]) is reported as “No inhibition” and the “IC50, CYP1A2 activity” value (human CYP1A2; recombinant human CYP1A2, individual phytochemicals, listed as podophyllotoxin) is reported as “no impact; also recorded: no inhibition”.

In the case of O=C(/C=C/c1ccc(O)c(O)c1)O[C@H](Cc1ccc(O)c(O)c1)C(=O)O [Rosmarinic acid], the IC50 (CYP2D6) is given as > 500 µM, the IC50 (CYP2C9) is given as 319 µM and the “IC50 Value, reported CYP3A4 inhibition” value (CYP3A4) is given as “No impact”. For the same molecule, the IC50 (CYP3A4) was 241 µM.

In the case of Cc1c(C)c2c(c(C)c1O)CCC(C)(C(=O)O)O2 (stereo not drawn) [Trolox], the “IC50, DPPH assay” value [2] is given as 1.99 µg/mL (≈ 7.95 µM).

For C[C@H]1[C@H](C)CC[C@]2(C(=O)O)CC[C@]3(C)C(=CC[C@@H]4[C@@]5(C)CC[C@H](O)C(C)(C)[C@@H]5CC[C@]43C)[C@H]12 [Ursolic acid], the IC50 (human CYP1A2) was > 100 µM.
